In brackets after ≈: the same amount, converted by molar mass. Where a name gives a salt, the structure may show the parent alone. Read-outs that look alike come from different tables or passages of the source.

Data set [1] can be described thus: Solubility levels of various agents in water. The note with it: for Extent (of solubility): US Pharmacopea scale, part of solvent per part of solute; for Part H20/part solute / Solubility in Water: water; for Solubility in Water: from mg/L and MW.
Text: (§1) According to US Pharmacopea standards, the scale of solubility (part of solvent per part of solute) is as follows:
Another data set can be described thus: physchem. The note with it: water.
The conditions of data set [2]: cited from earlier work.

Text for physchem: as §1

For the compound `CCCCN1CCCCC1C(=O)Nc1c(C)cccc1C` (centres unmarked) [Bupivicaine], in data set [1], the “Extent (of solubility)” value is given as “very slightly soluble (1000 to 10000)”, the “Part H20/part solute” value came out at 6720 and the “Solubility in Water” value worked out at 8.333 mM (≈ 2400 µg/mL).

In “physchem”, `[N]=O` [Nitric Oxide] showed a solubility of 2.85 mM (≈ 85.4 µg/mL).

`CCN(CC)CCNC(=O)c1ccc(N)cc1` [Procainamide] yielded a solubility in the data set “physchem” (Solubility in Water (mol/L)) of 18.6 mM (≈ 4390 µg/mL).

For `CCCN1CCCC[C@H]1C(=O)Nc1c(C)cccc1C` [Ropivacaine HCL], the “Solubility in Water” value in data set [2] (HCL) was 53.8 mg/mL. Also, in data set [1] (HCL), the “Extent (of solubility)” value is “slightly soluble (100 to 1000)”, the “Part H20/part solute” value was found to be 342.5 and the “Solubility in Water” value was 163.5 mM.

`CCCN1CCCC[C@H]1C(=O)Nc1c(C)cccc1C` [Ropivacaine]: in data set [2], the “Solubility in Water” value is 0.0576 mg/mL (≈ 210 µM). In addition, in data set [1], the “Extent (of solubility)” value is on record as “insoluble (>10000)”, the “Part H20/part solute” value amounted to 266388.8889 and the “Solubility in Water” value was determined as 0.2102 mM (≈ 57.7 µg/mL).

`Cc1cccc(C)c1NC(=O)C(C)N` (centres unmarked) [Tocainide] returned a solubility in the data set “physchem” (Solubility in Water (mol/L)) of 55.7 mM (≈ 10700 µg/mL).

Values taken from patent US11103684B2, “Systems, devices, and methods for treating a pulmonary disorder with an agent” (Holaira, Inc., priority 2013, dated 2021).
